The target in experiment [1] is T1, Tyrosine-protein phosphatase non-receptor type 1 (Homo sapiens) (UniProt P18031).
T1 sequence (whole entry): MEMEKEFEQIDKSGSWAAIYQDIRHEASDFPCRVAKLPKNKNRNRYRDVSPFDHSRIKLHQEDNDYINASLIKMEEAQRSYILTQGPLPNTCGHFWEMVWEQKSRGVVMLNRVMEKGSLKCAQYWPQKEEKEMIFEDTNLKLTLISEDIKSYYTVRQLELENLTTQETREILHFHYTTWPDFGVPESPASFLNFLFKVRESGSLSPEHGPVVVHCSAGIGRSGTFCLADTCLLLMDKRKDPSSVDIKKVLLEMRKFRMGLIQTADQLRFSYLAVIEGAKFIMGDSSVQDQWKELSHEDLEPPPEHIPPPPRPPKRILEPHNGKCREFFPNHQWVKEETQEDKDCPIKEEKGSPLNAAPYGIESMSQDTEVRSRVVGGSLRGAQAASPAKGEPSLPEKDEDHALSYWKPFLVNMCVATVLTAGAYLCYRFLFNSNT
The experiment in a line: Inactivation of PTP1B at 150 nM.

Experiment [2] has as its target T1, Tyrosine-protein phosphatase non-receptor type 1 (Homo sapiens). The experiment in a line: Inactivation of PTP1B assessed as return of enzyme activity at 800 nM for 10 mins in presence of dithiothreitol.
Experiment [3] has the same target. The experiment in a line: Inactivation of PTP1B at 15 uM after 15 sec.
Experiment [4] has the same target. The experiment in a line: Inactivation of PTP1B at 15 uM after 15 sec in presence of phosphate ion.
For experiment [5], the target named is T2, Tyrosine-protein phosphatase non-receptor type 1 (Homo sapiens, UniProt P18031).
T2 sequence (P18031 whole entry): T1 sequence (whole entry)
The experiment in a line: Inhibition of PTP1B.

The target of experiment [6] is T1, Tyrosine-protein phosphatase non-receptor type 1 (Homo sapiens). The experiment in a line: Inactivation of PTP1B assessed as return of enzyme activity at 5 uM after 10 mins in presence of dithiothreitol.
The target is the same in experiment [7]. Briefly: Inactivation of PTP1B at 15 uM after 15 sec in presence of glutathione.

Structures are written as SMILES. The source made the active and inactive calls. The rule behind the calls is not given here.

Turning to `O=C(O)c1ccccc1C(=O)OO`, in experiment [1], the outcome was Active.
Consider `O=C(OO)c1cccc(Cl)c1`, for which the result in experiment [1] was Active.
For the compound `CC(=O)OO` [ETHANEPEROXOIC ACID], the Activity in experiment [2] stood at 73%; in experiment [3] it was 88%; in experiment [4], 49%; in experiment [6], 10%; in experiment [7], 29%. Moreover, the affinity in experiment [5] corresponds to a Ki of 17 mM.

For the origin of these results see ChEMBL document CHEMBL1154493, “Oxidative inactivation of protein tyrosine phosphatase 1B by organic hydroperoxides” (Bioorg Med Chem Lett, 2008).
